These results are taken from patent US20230149421A1, “MEDICAMENT FOR PREVENTING OR TREATING IRRITABLE BOWEL SYNDROME OR INFLAMMATORY BOWEL DISEASE” (priority 2020, published 2023).

What all share (assay type): in vivo, Sprague-Dawley rats
Assay [1] concerns DNBS-induced colitis model. The assay can be described thus: Microscopic (histological) damage score of colonic tissue in DNBS-induced colitis model. As to conditions: DNBS rats, 6 days; for histological damage in colonic tissues compared to DNBS-induced colitis model: test compound groups (3, 10, 30 mg/kg) oral. The protocol:
(§1) The induction of colitis was performed according to the method in Antonioli L, et al. (Non Patent Literature 8). 15 mg of 2,4-dinitrobenzenesulfonic acid (DNBS) in 0.25 ml of 50% ethanol was rectally administered through a polyethylene PE-60 catheter inserted 8 cm proximal to the anus, during a short period of anesthesia by Isoflurane (manufactured by Abbott Laboratories). To the control rat, 0.25 ml of 50% ethanol was administered.
(§2) The DNBS-induced colitis model and the control rats were euthanized in a CO2 chamber. After death, mid-abdominal incision was performed, and the colon was excised, which was then opened in a longitudinal direction (longitudinal muscle direction), washed with sterile physiological saline, and split into two parts in the longitudinal direction.
Evaluation of microscopic damage and inflammation was performed with an optical microscope using a tissue section obtained from a specimen of the entire intestine and stained with hematoxylin/eosin. Evaluation of severity of enteritis was performed by scoring the microscopic damage (histological damage) of the samples. As described above, colonic tissues that had been excised and washed with physiological saline were used as the samples.
The scoring was performed according to the criteria determined by making a minor amendment on the criteria reported in Non Patent Literature 11 (Non Patent Literature 12). The microscopic scoring (scoring of histological damage) criteria for the colonic damage are as shown in the following (1) to (5) (Non Patent Literatures 8 to 10), and the total points in (1) to (5) are used as a score.
(1) Loss of mucosal structure (no loss of mucosal structure: 0 points and mild to severe loss of mucosal structure: 1 to 3 points)
(2) Cellular infiltration (no cellular infiltration: 0 points and mild to severe cellular infiltration: 1 to 3 points)
(3) Muscle thickening (no muscle thickening: 0 points and mild to severe muscle thickening: 1 to 3 points) (4) Crypt abscess (none: 0 points and present: 1 point)
(5) Reduction in goblet cells (not reduced: 0 points and reduced: 1 point) […]

A further assay deals with occludin. The assay can be described thus: Occludin expression in colonic tissue (western blotting), DNBS-induced colitis model. Conditions: DNBS rats; 10 mg/kg oral.
The subject of assay [2] is DNBS-induced colitis model. The assay can be described thus: Macroscopic damage score of colonic tissue in DNBS-induced colitis model. Conditions: DNBS rats, 6 days. The protocol: as §1, §2
Evaluation was performed by scoring the macroscopic damage of the samples. As described above, colonic tissues that had been excised and washed with physiological saline were used as the samples.
The scoring was performed according to the criteria determined by making a minor amendment on the criteria reported in Non Patent Literature 11 (Non Patent Literature 12). […]
(4) Thickness (mm) of colonic tissue (colonic wall): 1 point was scored for 1 mm […]

The subject of a further assay is caspase-1. In words: Caspase-1 expression in colonic tissue (western blotting), DNBS-induced colitis model. As to conditions: DNBS rats; 10 mg/kg oral. The protocol:
as §1
Sample preparation and a test method were performed by the same methods as those in Example 7.
Samples were prepared and a test was performed in the same manner as in Example 7, except that an anti-procaspase-1 antibody and an anti-caspase antibody (all ad1872, manufactured by Abcam plc., dilution 1: 1,000) were used as the antibodies, instead of the anti-occludin antibody.
Sample preparation and a test method were performed by the same methods as those in Example 8.

In assay [3] the test system is DNBS-induced colitis model. In words: Change in body weight and spleen weight in DNBS-induced colitis model. Conditions: DNBS rats; for change in body weights: 3, 10 and 30 mg/kg oral immediately after DNBS, 6 days; for spleen weights compared to DNBS-induced colitis model: test compound groups (3, 10, 30 mg/kg) oral. The protocol: Sprague-Dawley rats (body weights of 200 to 225 g) which were male albino rats were used as model animals. Three model animals were housed in one cage in a temperature-controlled environment at 22-24° C., 50-60% humidity, and a light cycle of 12 hours, were given ad libitum access to standard laboratory feed and tap water, and were not used for at least one week after being brought into the laboratory.
A model in which colitis was induced by 2,4-dinitrobenzenesulfonic acid (hereinafter, denoted as DNBS, manufactured by Sigma-Aldrich, Inc.) (in the present specification, referred to as a “DNBS-induced colitis model”) was prepared.
as §1
Food intake was monitored everyday since initiation of the drug therapy. Furthermore, body weights of the rats were measured every morning, and evidence of blood in diarrhea and a stool or rectal bleeding was examined during the experimental period.

In the case of `O=C1CC(=O)N(c2cccc(-c3noc(=S)[nH]3)c2)c2ccc3ccccc3c2N1.[Na]` [Compound A17, 5-[3-(5-thioxo-4H-[1,2,4]oxadiazol-3-yl)phenyl]-1H-naphtho[1,2-b][1,4]diazepine-2,4(3H,5H)-dione sodium salt], in assay [1], the “histological damage in colonic tissues compared to DNBS-induced colitis model” value was “not affected”. Further, the “occludin expression in inflamed tissues compared to DNBS-induced colitis model” value in the assay on occludin is “increased”. Also, the “macroscopic damage scores compared to DNBS-induced colitis model” value in assay [2] (10 and 30 mg/kg oral) is recorded as “significant decrease”. In addition, the “caspase-1 expression in colon in which inflammation was induced” value in the assay on caspase-1 is recorded as “cannot be decreased”. Moreover, in assay [3], the “change in body weights” value is given as “increase in body weights” and the “spleen weights compared to DNBS-induced colitis model” value is listed as “significantly decreased”.
Take `O=C1CC(=O)N(c2ccc(NC(=O)c3ccccc3I)cc2)c2ccc3ccccc3c2N1` [Compound B48, 5-[4-(2-iodobenzoylamino)phenyl]-1H-naphtho[1,2-b][1,4]diazepine-2,4(3H,5H)-dione]: in assay [1] (10 and 30 mg/kg oral), the “microscopic score compared to DNBS-induced colitis model” value is given as “significant improvement”. Also, in assay [1], the “histological damage in colonic tissues compared to DNBS-induced colitis model” value is reported as “decreased in a dose-dependent manner”. In the assay on occludin, the “occludin expression in inflamed tissues compared to DNBS-induced colitis model” value is reported as “increased”. In assay [2] (3, 10 and 30 mg/kg oral), the “macroscopic damage scores compared to DNBS-induced colitis model” value is given as “significant decrease”. The “caspase-1 expression in colon in which inflammation was induced” value in the assay with caspase-1 is on record as “decreased”. Moreover, in assay [3], the “change in body weights” value is reported as “increase in body weights” and the “spleen weights compared to DNBS-induced colitis model” value is “significantly decreased”.
